{"source": "patent US20240245602A1", "about": "“DRUG COMBINATION KITS AND METHODS OF DRUG DELIVERY” (President and Fellows of Harvard College, priority 2020, published 2024)", "assay": "In vivo ciprofloxacin mass in aspirated middle ear fluid by HPLC/MS after delivery through implanted tympanostomy tubes", "settings": "after 5 minutes of therapeutic delivery (Ciprodex)", "protocol": "N/A indicates an amount of drug below the detection limit of 100 ng/ml. Chinchillas underwent a sequential series of middle ear saline washes, and middle ear fluid was aspirated for the subsequent analysis by LC-MS.\nChinchillas were randomly allocated into two groups (LI-TT, denoted as Test TT, and SM-TT, denoted as SoC TT)."}
{"smiles": "O=C(O)c1cn(C2CC2)c2cc(N3CCNCC3)c(F)cc2c1=O", "note": "[ciprofloxacin]", "values": [{"measurement": "mass of ciprofloxacin within the middle ear, test tubes compared to SoC TTs", "result": "up to 5 times"}]}
